Results from US9783576B2, “Compositions and methods for targeted endometriosis treatment” (Sanford-Burnham Medical Research Institute, priority 2013, dated 2017).
Entries after “also recorded” stand apart in the source; their conditions may differ. Where two headings read alike, the source gives them in different places. Where no end group is shown, it is not given here. The star is where a group is joined. FITC = O=C1OC2(c3ccc(O)cc3Oc3cc(O)ccc32)c2ccc(NC(=S)*)cc21

Columns and labels:
Ishikawa cells = test: Fluorescence microscopy binding to live cells; assay type: cell-based, human; settings: for fluorescence/binding of Qdot-conjugated peptide on Ishikawa cells: 100 nM
Procedure: (§1) Ishikawa cells and A431 cells were grown on glass coverslips in 3.5 cm tissue culture plates. Each phage clone including z13 was added to these cells, incubated at 4° C. for 15 min, washed with cold PBS, and fixed with 1% paraformaldehyde (PFA) in PBS. Phage was detected using rabbit anti-T7 antibody and FITC-conjugated goat anti-rabbit IgG antibody. After washing three times with PBS, cells were fixed with 1% paraformaldehyde in PBS and inspected under a Zeiss Axioplan fluorescence microscope. Ishikawa cells grown on glass coverslips were incubated in medium containing FITC-z13 peptide (1 μg/ml) at 37° C. for 15 min. After washing with PBS, cells were fixed with 1% PFA in PBS, and inspected under the fluorescence microscope. Qdot-encapsulated and C16-z13 peptide coated liposomes were prepared as described above. Ishikawa cells were incubated with these liposomes at 37° C. for 15 min, washed with PBS, fixed with 1% PFA, and inspected under the fluorescence microscope. Qdot605-conjugated peptide, Qdot-cys-z13, or control peptide, Qdot-cys-m2, was added to the culture at 100 nM and left at 37° C. for 15 min.
(§2) Ishikawa cells and A431 cells were grown on glass coverslips in 3.5-cm tissue culture plates. Ishikawa cells grown on glass coverslips were incubated in medium containing FITC-z13 peptide (1 μg/ml) at 37° C. for 15 min. After washes with PBS, cells were fixed with 1% PFA in PBS and inspected under a fluorescence microscope. Qdot-cys-z13 was prepared by conjugating cys-z13 to Qdot nanoparticles (Qdot antibody conjugation kit, Quantum Dot, Hayward, Calif.) in accordance with the manufacturer's protocol. Cells were inspected under a Zeiss Axioplan fluorescence microscope.

[1] = system: CNGB3-expressing HEK293T cells; test: Cell viability assay (ATP, CellTiter Glo) in CNGB3-expressing cells; assay type: cell-based; settings: 37° C. 1 hour, single peptide
Procedure: FIG. 5 is a graph of luminescence of live cells cultured in medium containing peptides on CNGB3-MYC expressing A431 cells versus peptide concentration for the four different peptide combinations: z13, dKLAK-z13, HLAH-z13, or dKLAK-z13 plus HLAH-z13. Cells were cultured in medium containing each peptide at the indicated concentrations at 37° C. for 1 hour. ATP levels were measured by CellTiter Glo (Promega). Lines represent, in order from top to bottom: z13, dKLAK-z13, HLAH-z13, and dKLAK-z13 plus HLAH-z13.
Cytotoxic activity of dKLAK-z13 was then assessed in the presence of HLAH-z13 using a cell viability assay (FIG. 5). When CNGB3-expressing HEK293T cells were cultured in medium containing z13, dKLAK-z13, or HLAH-z13 at 37° C. for 1 hour, cell viability was not affected except at high concentration of dKLAK-z13 (at 200 μg/ml) or HLAH-z13 (at 50 μg/ml). […] For this experiment, cells were cultured at 37° C. for 20 hours in medium containing no peptide; z13 (100 μg/ml); dKLAK (100 μg/ml); dKLAK-z13 (100 μg/ml); HLAH-z13 (25 μg/ml); or dKLAK-z13 (100 μg/ml) plus HLAH-z13 (25 μg/ml).

[2] = system: CNGB3-positive A431 cells; test: Cell viability assay measuring ATP with KLA-HLA hybrid z13 peptides; assay type: cell-based, human; settings: 37° C. 6 hours, ATP by CellTiter Glo (FIG. 8)
Procedure: FIG. 8 is a graph of luminescence versus peptide concentration in μg/ml. […] Cells were cultured in medium containing each peptide at indicated concentrations at 37° C. for 6 hours. ATP levels were measured by CellTiter Glo (Promega).
(§3) The effect of these peptides was tested using CNGB3-positive A431 cells, which was generated by transfecting A431 cells with CNGB3-Myc gene driving lenti viral vector. […] The assays used detected no difference between these two peptides. The TUNEL assay was of CNGB3-MYC expressing A431 cells after culturing in medium containing KLA-HLA-z13 for 24 hours.

[3] = system: CNGB3-MYC expressing A431 cells; test: TUNEL assay with KLA-HLA hybrid z13 peptides; assay type: cell-based, human; settings: 24 hours in medium containing peptide
Procedure: as §3

A431 cells = test: Fluorescence microscopy binding to control cells; assay type: cell-based, human
Procedure: as §1, §2

CNGB3 [4] = target: T1, CNGB3 (Homo sapiens, UniProt Q9NQW8); test: FITC-z13 binding to HeLa cells transfected with CNGB3-MYC; assay type: cell-based; settings: 5 μg/ml, 37° C. 15 min
T1 construct: tissue Folio Biosciences; Imgenex; host or cells: human endometriosis tissue sections, normal uterine endometrium and normal tissue microarrays, peritoneum
T1 sequence (Q9NQW8 1-809 C234W): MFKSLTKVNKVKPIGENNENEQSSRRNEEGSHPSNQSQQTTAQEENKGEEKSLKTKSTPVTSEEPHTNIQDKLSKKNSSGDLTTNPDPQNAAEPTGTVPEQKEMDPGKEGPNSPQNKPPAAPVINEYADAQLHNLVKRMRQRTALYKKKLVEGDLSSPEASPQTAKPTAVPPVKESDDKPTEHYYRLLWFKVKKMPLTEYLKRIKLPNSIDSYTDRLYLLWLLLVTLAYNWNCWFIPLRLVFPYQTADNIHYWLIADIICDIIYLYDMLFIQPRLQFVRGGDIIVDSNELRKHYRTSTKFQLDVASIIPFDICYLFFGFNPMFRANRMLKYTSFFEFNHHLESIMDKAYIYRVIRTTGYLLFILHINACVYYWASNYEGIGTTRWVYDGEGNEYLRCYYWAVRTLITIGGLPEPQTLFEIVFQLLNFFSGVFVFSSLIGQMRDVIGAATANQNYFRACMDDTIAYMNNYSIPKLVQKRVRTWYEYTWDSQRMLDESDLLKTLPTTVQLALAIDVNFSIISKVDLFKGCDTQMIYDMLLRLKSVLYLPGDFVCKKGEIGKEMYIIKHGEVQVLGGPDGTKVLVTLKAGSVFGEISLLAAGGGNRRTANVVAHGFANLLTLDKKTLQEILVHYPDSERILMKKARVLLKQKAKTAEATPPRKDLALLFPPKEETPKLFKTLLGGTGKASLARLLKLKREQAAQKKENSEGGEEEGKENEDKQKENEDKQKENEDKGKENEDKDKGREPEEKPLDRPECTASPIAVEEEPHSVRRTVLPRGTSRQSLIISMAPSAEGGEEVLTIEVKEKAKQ
Source text: (§4) To assess binding of FITC-z13 to CNGB3, HeLa cells were transfected with a mammalian expression vector encoding a CNGB3-MYC fusion protein or with control empty vector. Fluorescence micrographs were made of HeLa cells transfected by control vector or with an expression vector encoding CNGB3-MYC.
(§5) CNGB3 cDNA was kindly provided by Dr. Hisao Ueyama, Department of Ophthalomology, Shiga University of Medical Science, Japan. cDNA encoding full-length CNGB3 was excised by HindIII and BsrGI and ligated into the HindIII and Asp718I sites of pcDNA3.1/myc-His-B vector (Invitrogen). HeLa cells were transfected with this vector, and expression of CNGB3-MYC/His fusion protein was determined by immunohistochemistry with an anti-MYC antibody and the anti-CNGB3 antibody (clone 3B2) described above. To test binding of z13 peptide to CNGB3, FITC-z13 was added (5 μg/ml) to the medium of HeLa cells transfected by the above-described vector and incubated at 37° C. for 15 min. Cells were washed with PBS, fixed with 4% PFA in PBS, and observed under a fluorescence microscope.

CNGB3 [5] = target: T2, CNGB3 (Homo sapiens, UniProt Q9NQW8, C234W); test: as above; assay type: cell-based; settings: control empty vector
T2 construct: tissue Folio Biosciences; Imgenex; host or cells: human endometriosis tissue sections, normal uterine endometrium and normal tissue microarrays, peritoneum
T2 sequence (Q9NQW8 1-809 C234W): T1 sequence (Q9NQW8 1-809 C234W)
Source text: as §4, §5

[6] = system: CNGB3-MYC expressing HEK293T cells; test: Endosome escape of biotin-z13 in CNGB3-MYC expressing HEK293T cells; assay type: cell-based; settings: 37° C. 30 min
Source text: (§6) It was realized that this lack of effect could be due to the fact that receptor-bound dKLAK-z13 localizes to the luminal side of endosomes, a prediction supported by the endosome-like pattern of fluorescent z13. To release dKLAK-z13 from the endosomes to the cytoplasm, an endosome-escaping 18-mer peptide HLAHLAHHLAHLAHHLAH (SEQ ID NO:38; here abbreviated as HLAH) was devised by replacing lysines in KLAKLAK (SEQ ID NO:39) with histidines, to provide histidine-rich sequences capable of destabilizing endosome membranes at acidic pH (Midoux et al., 2002; Pichon et al., 2001). […] For this experiment, biotin-z13 was bound to CNGB3-MYC expressing HEK293T cells at 37° C. for 30 min with or without HLAH-z13. Cells were stained by Alexa 488-conjugated avidin followed by DAPI nuclear staining.

mammalian cell = settings: not coupled to a targeting domain; cited from earlier work
[7] = system: CNGB3-Myc cDNA-transfected HEK293T cells; test: Apoptosis (TUNEL) of CNGB3-Myc transfected HEK293T cells; assay type: cell-based; settings: peptide alone added to culture medium
Source text: as §6
Each peptide was dissolved in dimethylsulfoxide at 100 μg/μl. Each peptide was added to the medium of cells, and the cells were cultured at 37° C. for 20 hours. Apoptosis of CNGB3-Myc cDNA-transfected HEK293T cells was determined by TUNEL assay using the ApopTag immunoperoxidase kit (Chemicon, Temecula, Calif.).

VRRADNRPG [z13]
cellular localization of z13 in Ishikawa cells (Ishikawa cells; punctuate cytoplasmic staining pattern in micrographs): internalized to endosomes | cell viability [1]: not affected

KLAKLAKKLAKLAKHLAHLAHHLAHLAHVRRADNRPG [KLA-HLA-z13]
apoptosis / loss of viability of CNGB3-positive A431 cells [2]: induced apoptosis | frequency of TUNEL-positive cells [3]: dose-dependent increase in the frequency of TUNEL-positive cells

FITC-z13: synthetic fluorescence-tagged z13 peptide whose amino-terminus was conjugated ({FITC}-VRRADNRPG)
binding of FITC-tagged z13 peptide to Ishikawa cells (Ishikawa cells; 1 μg/ml, 37° C. 15 min): bound | binding of FITC-tagged z13 peptide to A431 cells (A431 cells): did not show fluorescence | binding of FITC-tagged z13 peptide to A431 cells (A431 cells; listed as z13 peptide with an N-terminal FITC-tag): not | binding to CNGB3-MYC-expressing HeLa cells (CNGB3 [4]): bound to sites marked by MYC-epitope expression | binding to vector-transfected control HeLa cells (CNGB3 [5]): did not bind

Qdot-cys-z13: synthetic cys-z13 peptide CVRRADNRPG conjugated to fluorescent nanocrystal Qdot605 (also: conjugated to Qdot605 nanocrystal)
fluorescence/binding of Qdot-conjugated peptide on Ishikawa cells (Ishikawa cells; 37° C. 15 min): strong fluorescence | fluorescence/binding of Qdot-conjugated peptide on Ishikawa cells (Ishikawa cells; 37° C. 15 min, listed as Qdot-z13): bound | binding of Qdot-conjugated peptide to A431 cells (A431 cells): not

HLAHLAHHLAHLAHHLAHVRRADNRPG (HLAHLAHHLAHLAHHLAHVRRAXNXPG; (23)..(23) Xaa can be any naturally occurring amino acid; (25)..(25) Xaa can be any naturally occurring amino acid) [HLAH-z13]
endosome-escaping activity (release of biotin-z13 from endosomes to cytoplasm) [6]: promotes endosome-escaping activity | high concentration at which cell viability was affected (otherwise not affected) [1]: 50 µg/mL

(KLAKLAK)2 (KLAKLAKKLAKLAK) [mitochondriotoxic pro-apoptotic peptide (PAP)]
mammalian cell cytotoxicity of the peptide by itself (mammalian cell): low mammalian cell cytotoxicity

HLAHLAHHLAHLAHKLAKLAKKLAKLAKVRRADNRPG [HLA-KLA-z13]
apoptosis / loss of viability of CNGB3-positive A431 cells [2]: induced apoptosis

KLAKLAKKLAKLAKKLAKVRRADNRPG [dKLAK-z13]
induction of apoptosis in CNGB3-expressing cells [7]: apoptosis was not induced; also recorded: did not induce apoptosis | high concentration at which cell viability was affected (otherwise not affected) [1]: 200 µg/mL
